The source of these data is patent US10464882B2, “Y-type discrete polyethylene glycol derivative and preparation method thereof” (JENKEM TECHNOLOGY CO., LTD. (BEIJING), priority 2015, dated 2019).

The nature of data set [1]: Comparison test of dispersion of cholesterol and cholesterol derivatives in water. Format: physicochemical. The settings on record: 20 mg in 50 mL water, 20° C. water bath, shaken vigorously every 5 min for 30 min.
The nature of data set [2]: Comparison test of solubility of cholesterol derivatives in water (Chinese pharmacopoeia method). The class given is physicochemical. On the procedure:
The solubility of cholesterol derivatives in water was determined according to the method in “Chinese pharmacopoeia”: […] After 30 min, 1.5 mL water was further added, and the resulting mixture was placed in a 20° C. water bath with the same procedure for dissolution. Until 9 mL water was added, the solution was clear. […] After 30 min, 5 mL water was further added, and the resulting mixture was placed in a 20° C. water bath with the same procedure for dissolution until 25 mL water was added. 5 mL solution was taken from the dilute solution, the same procedure was carried out until 10 mL water was added, and the solution was clear.

SMILES strings stand for the structures. Read-outs that look alike come from different tables or passages of the source.

Regarding `COCCOCCOCCOCCOCCOCCOCCOC(=O)O[C@H]1CC[C@@]2(C)C(=CC[C@H]3[C@@H]4CC[C@H]([C@H](C)CCCC(C)C)[C@@]4(C)CC[C@@H]32)C1` [cholesterol derivative of mEG7-OH], in data set [1], the “dispersion in water, naked eye observation” value is on record as “white emulsion”. In data set [2], this molecule returned a solubility in water of 4.61 mg/100 g.
As to `CC(C)CCC[C@@H](C)[C@H]1CC[C@H]2[C@@H]3CC=C4C[C@@H](O)CC[C@]4(C)[C@H]3CC[C@]12C` [cholesterol], the “dispersion in water, naked eye observation” value in data set [1] was “completely insoluble”. The same molecule registered a solubility in water in data set [2] (water, 20° C. water bath, shaken every 5 min for 30 min) below 0.2 mg/100 g.
